These results are taken from publication PMC12376244 (Chembiochem, 2025).

Assay [1] has as its system CmSTC1. As to the kind of experiment: malachite green phosphate release assay, coupled to yeast pyrophosphatase. To be noted: 5 mM MgCl2, Tris-HCl/MES/CAPS buffer, pH 7.8; FDP range 3.125 to 50 or 75 μM. The class given is biochemical, Cubamyces menziesii.
The subject of assay [2] is CmSTC3. The assay is described as above. The class given is biochemical, Cubamyces menziesii. As to conditions: 5 mM MgCl2, Tris-HCl/MES/CAPS buffer, pH 7.8; FDP range 3.125 to 50 or 75 μM.

One may read the Km as the substrate concentration at which the rate is half of its maximum.

Turning to `CC(C)=CCC/C(C)=C/CC/C(C)=C/COP(=O)(O)OP(=O)(O)O` [FDP], the Michaelis-Menten constant (Km) came to 68.2 µM in assay [1] and 19.9 µM in assay [2].
